Measurements published in patent US20240261375A1, “PHARMACEUTICAL COMPOSITION FOR TREATING OR PREVENTING DISORDER ASSOCIATED WITH ADMINISTRATION OF ANTICANCER AGENT” (LTT BIO-PHARMA CO., LTD., priority 2021, published 2024).

Test system: oxaliplatin-induced allodynia model rats
Experiment: Von Frey test in oxaliplatin-induced allodynia model rats
Assay type: in vivo, rat
Conditions: OXA 4 mg/kg i.p. 8 doses, prophylactic, FIG. 1
Experimental: Six to eight-week-old male SD rats (from 200 to 400 g) were used, and oxaliplatin (hereinafter may be abbreviated as OXA) was administered into the peritoneal cavity of rats at a dose of 4 mg/kg. A total of eight doses were given with a regimen of twice weekly for four weeks (Days 1, 2, 7, 8, 13, 14, 19, and 20). A solvent for OXA, i.e., a 5% glucose solution, was similarly administered to a control group. Elplat I.V. Infusion Solution 100 mg (Yakult Honsha Co., Ltd.) was used as OXA.
Laboratory animals were divided into five groups: a control group, an OXA administration group, and groups each receiving administration of OXA and PC-SOD 0.1, 0.3, or 1 mg/kg (OXA+PC-SOD administration groups) (n=8 per group). In an experiment of prevention, PC-SOD was administered into the caudal vein from 5 to 15 minutes after administration of OXA in the OXA+PC-SOD administration group. […]
Data were expressed with mean±standard error (SEM). Statistical processing of the results was performed by Student's t test for comparison of two groups and ANOVA one way test (post-hoc Tukey's test) for comparison of three or more groups, and a statistically significant difference was determined when the hazard ratio was 5% or lower (*, **, and *** in the figures: p<0.05, p<0.01, and p<0.001, respectively).

lecithinized superoxide dismutase [PC-SOD]
decrease in pain sensation threshold caused by OXA (von Frey test) (PC-SOD 1 mg/kg caudal vein): significantly suppressed | decrease in pain sensation threshold caused by OXA (von Frey test) (PC-SOD 0.1, 0.3 and 1 mg/kg caudal vein): suppressed by PC-SOD in a concentration-dependent manner
